We go through 21 compounds from US10519177B2, “Heterocyclic compounds and uses thereof” (Plexxikon Inc., priority 2013, dated 2019).

One test relates to MV-4-11 cells. Put plainly: Oncology cell growth assay MV-4-11 (CellTiter Glo). The format is cell-based. The conditions noted are these: Homo sapiens, MV4-11, 72 h; MV-4-11, 3d growth; read-out: Cell activity (IC50 μM) MV-4-11 3d-Growth. The method in brief:
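MV-4-11 AML cells (MLL-AF4), 3000 per well, exposed to 8-point 1:3 compound titration from 10 μM top concentration (0.2% DMSO) for 72 h. Viability by CellTiter Glo luminescence, normalized to DMSO controls; pIC50 from four-parameter curve fit.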
Background: In ATP-based viability assays light output follows the ATP content of the culture.

Another test addresses BRD4-BD12 (1-477) (Homo sapiens (Human), UniProt O60885). In words: Alphascreen binding assay BRD4-BD12. As to conditions: BRD4(1 2) H4; read-out: Biochemical activity (IC50 μM) BRD4(1 2) H4. Summed up:
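First, compound was preincubated 1 h at room temperature with the His-tagged BRD4 protein (BD1 44-164 or tandem BD12 1-477) and acetylated H4 peptide. Next, donor and acceptor beads were added at 7.5 μg/ml final. After 30 min, AlphaScreen emission was recorded.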
In general terms: Bead proximity is the source of the signal in Alpha formats.

Consider `Cc1noc(C)c1-c1cnc2c(-c3ccc(C(=O)O)cc3)cn(Cc3ccncc3)c2c1` [P-0937, 4-[6-(3,5-dimethylisoxazol-4-yl)-1-(4-pyridylmethyl)pyrrolo[3,2-b]pyridin-3-yl]benzoic acid], for which the IC50 in the test on MV-4-11 cells and on BRD4-BD12 (1-477) was less than 1 µM throughout.

Take `COc1cc(-c2cn([C@@H](C)c3ccccn3)c3cc(-c4c(C)noc4C)cnc23)ccc1C(=O)O` [P-0938, 4-[6-(3,5-dimethylisoxazol-4-yl)-1-[(1S)-1-(2-pyridyl)ethyl]pyrrolo[3,2-b]pyridin-3-yl]-2-methoxy-benzoic acid]: the concentration for half-maximal inhibition (IC50) in the test on MV-4-11 cells and on BRD4-BD12 (1-477) was less than 1 µM in each case.

Consider `COC(=O)c1ccc(-c2cn(Cc3cccc(C)n3)c3cc(-c4c(C)noc4C)cnc23)cc1OC` [P-0939, methyl 4-[6-(3,5-dimethylisoxazol-4-yl)-1-[(6-methyl-2-pyridyl)methyl]pyrrolo[3,2-b]pyridin-3-yl]-2-methoxy-benzoate], for which the half-inhibitory concentration (IC50) in the test with MV-4-11 cells and at BRD4-BD12 (1-477) was less than 1 µM each time.

`Cc1noc(C)c1-c1cnc2c(C#N)cn(C(c3ccccc3)c3ccccn3)c2c1` (stereo not drawn) [P-0940, 6-(3,5-dimethylisoxazol-4-yl)-1-[phenyl(2-pyridyl)methyl]pyrrolo[3,2-b]pyridine-3-carbonitrile]: the IC50 in the test with MV-4-11 cells and on BRD4-BD12 (1-477) was less than 1 µM throughout.

Turning to `COc1cc(-c2cn(Cc3cccc(C)n3)c3cc(-c4c(C)noc4C)cnc23)ccc1C(=O)O` [P-0941, 4-[6-(3,5-dimethylisoxazol-4-yl)-1-[(6-methyl-2-pyridyl)methyl]pyrrolo[3,2-b]pyridin-3-yl]-2-methoxy-benzoic acid], the IC50 in the test on MV-4-11 cells and at BRD4-BD12 (1-477) was less than 1 µM in each case.

Consider `COC(=O)C1(c2ccc(-c3cn([C@@H](C)c4ccccn4)c4cc(-c5c(C)noc5C)cnc34)cc2)CC1` [P-0942, methyl 1-[4-[6-(3,5-dimethylisoxazol-4-yl)-1-[(1S)-1-(2-pyridyl)ethyl]pyrrolo[3,2-b]pyridin-3-yl]phenyl]cyclopropanecarboxylate], for which the concentration for half-maximal inhibition (IC50) with MV-4-11 cells and at BRD4-BD12 (1-477) was less than 1 µM in each case.

As to `Cc1noc(C)c1-c1cnc2c(-c3ccc(C4(C(=O)O)CC4)cc3)cn(CC3(C)CCOCC3)c2c1` [P-0943, 1-[4-[6-(3,5-dimethylisoxazol-4-yl)-1-[(4-methyltetrahydropyran-4-yl)methyl]pyrrolo[3,2-b]pyridin-3-yl]phenyl]cyclopropanecarboxylic acid], the IC50 (commonly the concentration that inhibits the measured activity by half) is 1 to 10 µM in the test with MV-4-11 cells and less than 1 µM on BRD4-BD12 (1-477).

For `Cc1noc(C)c1-c1cnc2c(-c3ccc(C#N)nc3)cn(CC3(C)CCOCC3)c2c1` [P-0944, 5-[6-(3,5-dimethylisoxazol-4-yl)-1-[(4-methyltetrahydropyran-4-yl)methyl]pyrrolo[3,2-b]pyridin-3-yl]pyridine-2-carbonitrile], the 50% inhibitory concentration (IC50) in the test on MV-4-11 cells and at BRD4-BD12 (1-477) was less than 1 µM each time.

Consider `Cc1noc(C)c1-c1cnc2c(-c3cnn(C)c3)cn(CC3(C)CCOCC3)c2c1` [P-0945, 3,5-dimethyl-4-[3-(1-methylpyrazol-4-yl)-1-[(4-methyltetrahydropyran-4-yl)methyl]pyrrolo[3,2-b]pyridin-6-yl]isoxazole], for which the IC50 in the test on MV-4-11 cells and on BRD4-BD12 (1-477) was less than 1 µM each time.

Turning to `Cc1noc(C)c1-c1cnc2c(-c3ccc(C(C)(C)C#N)cc3)cn(CC3(C)CCOCC3)c2c1` [P-0946, 2-[4-[6-(3,5-dimethylisoxazol-4-yl)-1-[(4-methyltetrahydropyran-4-yl)methyl]pyrrolo[3,2-b]pyridin-3-yl]phenyl]-2-methyl-propanenitrile], the half-maximal inhibitory concentration (IC50) in the test with MV-4-11 cells and on BRD4-BD12 (1-477) was less than 1 µM in each case.

As for `Cc1noc(C)c1-c1cnc2c(I)cn(Cc3ncccc3F)c2c1` [P-0947, 4-[1-[(3-fluoro-2-pyridyl)methyl]-3-iodo-pyrrolo[3,2-b]pyridin-6-yl]-3,5-dimethyl-isoxazole], the IC50 in the test on MV-4-11 cells and on BRD4-BD12 (1-477) was less than 1 µM each time.

`COC(=O)c1ccc(-c2cn(Cc3ncccc3F)c3cc(-c4c(C)noc4C)cnc23)cc1` [P-0948, methyl 4-[6-(3,5-dimethylisoxazol-4-yl)-1-[(3-fluoro-2-pyridyl)methyl]pyrrolo[3,2-b]pyridin-3-yl]benzoate]: the IC50 in the test with MV-4-11 cells and on BRD4-BD12 (1-477) was less than 1 µM each time.

As to `Cc1noc(C)c1-c1cnc2c(-c3ccc(C(=O)O)cc3)cn(Cc3ncccc3F)c2c1` [P-0949, 4-[6-(3,5-dimethylisoxazol-4-yl)-1-[(3-fluoro-2-pyridyl)methyl]pyrrolo[3,2-b]pyridin-3-yl]benzoic acid], the concentration for half-maximal inhibition (IC50) in the test with MV-4-11 cells and on BRD4-BD12 (1-477) was less than 1 µM each time.

For the compound `COC(=O)c1ccc(-n2cc(P(=O)(c3ccccc3)c3ccccc3)c3cc(-c4c(C)noc4C)cnc32)cc1` [P-0950, methyl 4-[5-(3,5-dimethylisoxazol-4-yl)-3-diphenylphosphoryl-pyrrolo[2,3-b]pyridin-1-yl]benzoate], the IC50 in the test with MV-4-11 cells and at BRD4-BD12 (1-477) was less than 1 µM throughout.

Turning to `Cc1noc(C)c1-c1cnc2c(c1)c(P(=O)(c1ccccc1)c1ccccc1)cn2-c1ccc(C(=O)O)cc1` [P-0951, 4-[5-(3,5-dimethylisoxazol-4-yl)-3-diphenylphosphoryl-pyrrolo[2,3-b]pyridin-1-yl]benzoic acid], the half-inhibitory concentration (IC50) in the test with MV-4-11 cells and on BRD4-BD12 (1-477) was less than 1 µM each time.

As to `COC(=O)C1(c2ccc(-c3cn(Cc4ccccn4)c4cc(-c5c(C)noc5C)cnc34)cc2)CC1` [P-0952, methyl 1-[4-[6-(3,5-dimethylisoxazol-4-yl)-1-(2-pyridylmethyl)pyrrolo[3,2-b]pyridin-3-yl]phenyl]cyclopropanecarboxylate], the concentration for half-maximal inhibition (IC50) with MV-4-11 cells and on BRD4-BD12 (1-477) was less than 1 µM throughout.

Regarding `COc1cc(-c2cn(Cc3ccccn3)c3cc(-c4c(C)noc4C)cnc23)ccc1C(=O)O` [P-0953, 4-[6-(3,5-dimethylisoxazol-4-yl)-1-(2-pyridylmethyl)pyrrolo[3,2-b]pyridin-3-yl]-2-methoxy-benzoic acid], the IC50 with MV-4-11 cells and on BRD4-BD12 (1-477) was less than 1 µM each time.

On to `Cc1noc(C)c1-c1cnc2c(-c3ccc(C4(C(=O)O)CC4)cc3)cn([C@@H](C)c3ccccn3)c2c1` [P-0955, 1-[4-[6-(3,5-dimethylisoxazol-4-yl)-1-[(1S)-1-(2-pyridyl)ethyl]pyrrolo[3,2-b]pyridin-3-yl]phenyl]cyclopropanecarboxylic acid], for which the 50% inhibitory concentration (IC50) with MV-4-11 cells and at BRD4-BD12 (1-477) was less than 1 µM in each case.

Take `CC[C@H](c1ccccn1)n1cc(I)c2ncc(-c3c(C)noc3C)cc21` [P-0956, 4-[3-iodo-1-[(1R)-1-(2-pyridyl)propyl]pyrrolo[3,2-b]pyridin-6-yl]-3,5-dimethyl-isoxazole]: the 50% inhibitory concentration (IC50) in the test on MV-4-11 cells and at BRD4-BD12 (1-477) was less than 1 µM in each case.

As to `COC(=O)c1ccc(-c2cn(Cc3cnc(C)s3)c3cc(-c4c(C)noc4C)cnc23)cc1` [P-0957, methyl 4-[6-(3,5-dimethylisoxazol-4-yl)-1-[(2-methylthiazol-5-yl)methyl]pyrrolo[3,2-b]pyridin-3-yl]benzoate], the IC50 in the test on MV-4-11 cells and on BRD4-BD12 (1-477) was less than 1 µM in each case.

As for `Cc1ncc(Cn2cc(-c3ccc(C(=O)O)cc3)c3ncc(-c4c(C)noc4C)cc32)s1` [P-0958, 4-[6-(3,5-dimethylisoxazol-4-yl)-1-[(2-methylthiazol-5-yl)methyl]pyrrolo[3,2-b]pyridin-3-yl]benzoic acid], the IC50 with MV-4-11 cells and on BRD4-BD12 (1-477) was less than 1 µM each time.
